Literature values as cited in article PMC8146568, “Thermococcus bergensis sp. nov., a Novel Hyperthermophilic Starch-Degrading Archaeon” (Biology, 2021).
Read-outs that look alike come from different tables or passages of the source.

Tested on: T1, glyceraldehyde-3-phosphate ferredoxin oxidoreductase (GAPOR)
T1 construct: gene gor; native, purified from starch-grown culture of "strain 7324" (DSM 8774 mixed culture, formerly attributed to Archaeoglobus fulgidus); 66 kDa monomer; N-terminus MRFSVLKINLNEKKVX(X)EVFEREXV
Assay: benzyl viologen-dependent GAP oxidation, steady-state kinetics
Format: biochemical, Thermococcus bergensis
Details: pH 7.8, 50 °C, read-out: apparent Km

SMILES | Km (artificial electron acceptor, GAP as co-substrate) | Km (benzyl viologen as electron acceptor)
c1ccc(C[n+]2ccc(-c3cc[n+](Cc4ccccc4)cc3)cc2)cc1 [BV, benzyl viologen] | 4000 µM | –
O=C[C@H](O)COP(=O)(O)O [GAP, glyceraldehyde-3-phosphate] | – | 5 µM
